Test results reported in ChEMBL document CHEMBL1201862, “PubChem BioAssay data set” (2004).
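Each compound was tested at five concentrations against cells in 96-well plates for 48 hours. GI50 marks 50% less growth.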 Activity calls are given as the source filed them. Rule as the data show it: active = GI50 up to about 1.1 µM and inactive = higher.

What was measured:
Test in all cases: DTP human tumour cell line panel, 48 h
CCRF-CEM = system: CCRF-CEM
DU-145 = system: DU-145
HCC 2998 = system: HCC 2998
HCT-15 = system: HCT-15
HL-60 = system: HL-60
HOP-62 = system: HOP-62
MDA-MB-435 = system: MDA-MB-435
MOLT-4 = system: MOLT-4
Malme-3M = system: Malme-3M
NCI-H226 = system: NCI-H226
NCI-H460 = system: NCI-H460
NCI/ADR-RES = system: NCI/ADR-RES
OVCAR-5 = system: OVCAR-5
SF-268 = system: SF-268
SF-295 = system: SF-295
SK-MEL-2 = system: SK-MEL-2
T47D = system: T47D
UACC-257 = system: UACC-257
UACC-62 = system: UACC-62
UO-31 = system: UO-31

Measured: GI50

CC(=O)O[C@H]1C(=O)[C@@]2(C)[C@H]([C@H](OC(=O)C3CCCCC3)[C@]3(O)C[C@H](OC(=O)[C@H](O)[C@@H](NC(=O)OC(C)(C)C)c4ccccc4)C(C)=C1C3(C)C)[C@]1(OC(C)=O)CO[C@@H]1C[C@@H]2O
0.268 µM: HCT-15
active: CCRF-CEM 0.00499 µM | DU-145 0.0867 µM | HCC 2998 0.0299 µM | HL-60 0.00125 µM | HOP-62 0.0181 µM | MDA-MB-435 0.00226 µM | MOLT-4 0.00474 µM | Malme-3M 0.177 µM | NCI-H226 0.0236 µM | NCI-H460 0.00762 µM | OVCAR-5 0.0074 µM | SF-268 0.202 µM | SF-295 0.027 µM | SK-MEL-2 0.0803 µM | T47D 0.0678 µM | UACC-257 0.0252 µM | UACC-62 0.0129 µM | UO-31 0.849 µM
inactive: NCI/ADR-RES > 3.03 µM

CC12CCCCC1=C(F)C(F)(F)S2 (stereo not given)
32.7 µM: HCT-15
inactive: CCRF-CEM 8.65 µM | DU-145 > 89.1 µM | HCC 2998 > 67.1 µM | HL-60 6.64 µM | HOP-62 63.8 µM | MDA-MB-435 43.3 µM | MOLT-4 11.3 µM | Malme-3M 24.4 µM | NCI-H226 > 100 µM | NCI-H460 > 100 µM | NCI/ADR-RES 40.1 µM | OVCAR-5 62.5 µM | SF-268 > 66.4 µM | SF-295 41.9 µM | SK-MEL-2 75.2 µM | T47D 26.7 µM | UACC-257 20.1 µM | UACC-62 42.4 µM | UO-31 15 µM

O=C(O)CCC1COc2ccccc2O1 (stereo not given)
> 10 µM: HCT-15
inactive: CCRF-CEM > 10 µM | DU-145 > 10 µM | HCC 2998 > 10 µM | HL-60 > 10 µM | HOP-62 > 10 µM | MDA-MB-435 > 10 µM | MOLT-4 > 10 µM | Malme-3M > 10 µM | NCI-H226 > 10 µM | NCI-H460 > 10 µM | NCI/ADR-RES > 10 µM | OVCAR-5 > 10 µM | SF-268 > 10 µM | SF-295 > 10 µM | SK-MEL-2 > 10 µM | T47D > 10 µM | UACC-257 > 10 µM | UACC-62 > 10 µM | UO-31 > 10 µM

O=C1NC(=S)NC(=O)C1=C(O)Nc1ccccc1
14.2 µM: HCT-15
inactive: CCRF-CEM 16.4 µM | DU-145 30.5 µM | HCC 2998 42.8 µM | HL-60 28.1 µM | HOP-62 23.2 µM | MDA-MB-435 7.98 µM | MOLT-4 10.3 µM | Malme-3M 25.8 µM | NCI-H226 30.5 µM | NCI-H460 22.7 µM | NCI/ADR-RES 30.5 µM | OVCAR-5 47.2 µM | SF-268 32.7 µM | SF-295 27.7 µM | SK-MEL-2 35.9 µM | T47D 28.2 µM | UACC-257 38.1 µM | UACC-62 19.5 µM | UO-31 26.5 µM

O=C1c2c(F)c(F)c(F)c(F)c2SC2=Nc3cccc4cccc(c34)N12
inactive: CCRF-CEM 3.31 µM | DU-145 12.2 µM | HCC 2998 13.9 µM | HL-60 2.07 µM | HOP-62 13.7 µM | MDA-MB-435 4.94 µM | MOLT-4 2.16 µM | Malme-3M 3.48 µM | NCI-H226 11.4 µM | NCI-H460 10 µM | NCI/ADR-RES 2.77 µM | OVCAR-5 16.1 µM | SF-268 3.61 µM | SF-295 14.5 µM | SK-MEL-2 2.75 µM | T47D 1.56 µM | UACC-257 5.19 µM | UACC-62 4.22 µM | UO-31 9.16 µM
4.92 µM: HCT-15

Cc1cc(S(=O)(=O)Nc2nnc3cnc4ccccc4n23)c(S)cc1Cl
inactive: CCRF-CEM > 100 µM | DU-145 > 100 µM | HCC 2998 > 100 µM | HL-60 > 100 µM | HOP-62 79.4 µM | MDA-MB-435 > 100 µM | MOLT-4 > 100 µM | Malme-3M > 100 µM | NCI-H226 > 94.6 µM | NCI-H460 51.5 µM | NCI/ADR-RES > 100 µM | OVCAR-5 > 100 µM | SF-268 98.6 µM | SF-295 > 100 µM | SK-MEL-2 97.1 µM | T47D > 100 µM | UACC-257 > 100 µM | UACC-62 79.1 µM | UO-31 35.2 µM
> 100 µM: HCT-15

CSC1SCC2C(=O)N(C)C3(CC3C)C(=O)OCC(NC(=O)c3nc4ccccc4cc3O)C(=O)NC(C)C(=O)N(C)C1C(=O)N(C)C1(CC1C)C(=O)OCC(NC(=O)c1nc3ccccc3cc1O)C(=O)NC(C)C(=O)N2C (stereo not given)
0.0146 µM: HCT-15
active: CCRF-CEM < 0.0001 µM | DU-145 < 0.0001 µM | HCC 2998 < 0.0001 µM | HL-60 < 0.0001 µM | HOP-62 < 0.0001 µM | MDA-MB-435 < 0.0001 µM | MOLT-4 < 0.0001 µM | Malme-3M < 0.0001 µM | NCI-H226 < 0.0001 µM | NCI-H460 < 0.0001 µM | NCI/ADR-RES 0.176 µM | OVCAR-5 < 0.0001 µM | SF-268 < 0.0001 µM | SF-295 < 0.0001 µM | SK-MEL-2 < 0.0001 µM | T47D < 0.0001 µM | UACC-257 0.1 µM | UACC-62 < 0.0001 µM | UO-31 0.000449 µM
